This note sets out measurements from patent publication US20230322846A9, “NEUROACTIVE STEROIDS AND THEIR METHODS OF USE” (SAGE THERAPEUTICS, INC., priority 2018, published 2023).

pEC50, pIC50: −log10 of the molar value.

Test [1] deals with [35S]-TBPS binding, rat brain cortical membranes. In words: Steroid inhibition of [35S]-TBPS binding. The note with it: 3 nM [35S]-TBPS, in the presence of 5 mM GABA. The essentials:
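Rat cortical P2 membranes incubated 90 min at room temperature with 3 nM [35S]-TBPS, […] and test compound (0.5% DMSO final) in NaCl/Na–K phosphate pH 7.4; nonspecific binding with […]. Filter-bound radioactivity counted; IC50 and Imax from nonlinear fits, mean ± SEM.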

Test [2] concerns the target human GABAA receptors composed of the α1β2γ2 subunits (Homo sapiens (Human), UniProt P14867+P18507+P47870). The test is described as follows: α1β2γ2 SyncroPatch automated patch clamp assay. It is filed as cell-based. The note with it: for pEC50: HEK cells, potentiation of submaximal GABA current, clamped at −120 mV; for α1β2γ2 EMAX: peak current after GABA+compound divided by peak current after GABA alone. On the procedure:
(§1) The SyncroPatch 384PE (Nanion, Germany) automated patch clamp platform was used to obtain recordings from human embryonic kidney cells stably expressing human GABAA receptors composed of the α1β2γ2 and α4β3δ subunits. Cells were bathed in an extracellular solution containing: 140 mM NaCl, 4 mM KCl, 2 mM CaCl2), 1 mM MgCl2, 10 mM HEPES, 5 mM glucose and 0.1% DMSO. Solution was maintained at pH 7.4 with NaOH and 300 mOsm/L. Chips with multi-hole (4×) medium resistance (2-3M) are used for the recombinant cell line experiments. Once harvested, cells are stored in extracellular solution set to 10° C. in the cell hotel with a minimum shaking speed of 200 rpm before addition to the chip at the beginning of each experiment. Whole cell patch clamp recordings were made using an intracellular solution containing: 90 mM KCl, 50 mM KF, 1.5 mM MgCl2, 11.1 mM EGTA and 10 mM HEPES, 2 mM NaATP, maintained at pH 7.2 with KOH. Currents are leak corrected (using P/2 leak correction protocol) and sampled at 5 kHz. Cells were clamped at −120 mV. After establishing a stable baseline, a submaximal concentration of GABA (3-5 μM for cells expressing α1β2γ2 and 10 μM for cells expressing […]) was applied at a rate of 10 μl/second, immediately followed by application of GABA+compound (10 μl/second) at a single concentration of compound per cell. Compounds were tested at six concentrations (0.029, 0.12, 0.47, 1.88, 7.5, and 30 μM) in n=8-12 cells per concentration. Compound effect was determined by dividing peak current amplitude after GABA+compound by peak current amplitude after GABA alone. EC50 and Emax values were determined from average values for each concentration.
On the technique in general: Patch clamp records ionic current or voltage across a cell membrane.

In test [3] the target is human GABAA receptors composed of the α4β3δ subunits (Homo sapiens (Human), UniProt O14764+P28472+P48169). The test is described as follows: α4β3δ SyncroPatch automated patch clamp assay. It is filed as cell-based. Conditions: for pEC50: HEK cells, potentiation of submaximal GABA current, clamped at −120 mV; for α4β3δ EMAX: peak current after GABA+compound divided by peak current after GABA alone. On the procedure: as §1
Chain of human GABAA receptors composed of the α4β3δ subunits (P48169 36-554 limits assumed): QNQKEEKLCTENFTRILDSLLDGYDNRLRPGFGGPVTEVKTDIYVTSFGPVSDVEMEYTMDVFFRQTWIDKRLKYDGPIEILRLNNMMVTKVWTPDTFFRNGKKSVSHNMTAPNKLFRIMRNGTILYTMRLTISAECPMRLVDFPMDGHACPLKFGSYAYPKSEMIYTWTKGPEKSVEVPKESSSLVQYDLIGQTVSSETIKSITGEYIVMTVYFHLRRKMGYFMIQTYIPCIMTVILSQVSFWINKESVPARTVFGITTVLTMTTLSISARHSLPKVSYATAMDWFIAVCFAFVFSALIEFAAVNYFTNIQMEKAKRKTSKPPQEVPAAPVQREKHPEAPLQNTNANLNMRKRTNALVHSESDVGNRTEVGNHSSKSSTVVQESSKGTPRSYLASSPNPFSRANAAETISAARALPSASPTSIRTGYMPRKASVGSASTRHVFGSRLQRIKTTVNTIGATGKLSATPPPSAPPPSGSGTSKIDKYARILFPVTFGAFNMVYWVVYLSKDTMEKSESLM
Chain of human GABAA receptors composed of the α4β3δ subunits (P28472 26-473 limits assumed): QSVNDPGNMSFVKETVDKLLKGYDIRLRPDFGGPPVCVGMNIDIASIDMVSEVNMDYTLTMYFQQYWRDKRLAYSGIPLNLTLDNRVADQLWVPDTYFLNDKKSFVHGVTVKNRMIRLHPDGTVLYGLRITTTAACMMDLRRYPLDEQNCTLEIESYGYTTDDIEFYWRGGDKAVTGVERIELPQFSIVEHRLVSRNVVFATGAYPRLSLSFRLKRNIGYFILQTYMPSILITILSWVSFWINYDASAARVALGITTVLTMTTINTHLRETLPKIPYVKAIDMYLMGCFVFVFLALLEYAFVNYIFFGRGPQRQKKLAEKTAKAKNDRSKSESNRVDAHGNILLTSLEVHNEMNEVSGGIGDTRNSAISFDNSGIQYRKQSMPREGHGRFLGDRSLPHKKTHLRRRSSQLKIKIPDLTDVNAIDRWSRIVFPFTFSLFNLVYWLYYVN
Chain of human GABAA receptors composed of the α4β3δ subunits (O14764 17-452 limits assumed): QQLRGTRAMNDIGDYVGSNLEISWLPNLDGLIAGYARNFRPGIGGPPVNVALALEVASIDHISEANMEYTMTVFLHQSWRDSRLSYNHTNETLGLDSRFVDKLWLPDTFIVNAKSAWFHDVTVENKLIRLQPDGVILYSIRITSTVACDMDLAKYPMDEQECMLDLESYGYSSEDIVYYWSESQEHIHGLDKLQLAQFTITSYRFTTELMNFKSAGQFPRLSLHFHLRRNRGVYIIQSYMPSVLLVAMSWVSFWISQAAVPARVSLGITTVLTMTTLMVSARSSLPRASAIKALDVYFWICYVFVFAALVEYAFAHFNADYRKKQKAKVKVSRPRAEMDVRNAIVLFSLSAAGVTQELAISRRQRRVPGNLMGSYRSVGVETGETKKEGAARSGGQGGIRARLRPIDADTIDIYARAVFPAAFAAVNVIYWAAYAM

Chain of human GABAA receptors composed of the α1β2γ2 subunits (P14867 28-456 limits assumed): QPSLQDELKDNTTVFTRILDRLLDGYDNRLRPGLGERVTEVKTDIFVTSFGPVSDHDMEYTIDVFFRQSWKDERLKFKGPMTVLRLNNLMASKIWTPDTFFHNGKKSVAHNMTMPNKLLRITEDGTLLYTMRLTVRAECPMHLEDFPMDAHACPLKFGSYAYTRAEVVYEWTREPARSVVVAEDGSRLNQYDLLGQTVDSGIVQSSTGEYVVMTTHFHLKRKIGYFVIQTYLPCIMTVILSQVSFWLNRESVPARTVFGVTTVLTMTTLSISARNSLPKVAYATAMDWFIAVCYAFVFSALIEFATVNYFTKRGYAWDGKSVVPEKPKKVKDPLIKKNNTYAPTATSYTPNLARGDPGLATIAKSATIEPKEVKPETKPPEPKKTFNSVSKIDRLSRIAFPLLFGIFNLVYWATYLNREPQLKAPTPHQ
Chain of human GABAA receptors composed of the α1β2γ2 subunits (P47870 25-512 limits assumed): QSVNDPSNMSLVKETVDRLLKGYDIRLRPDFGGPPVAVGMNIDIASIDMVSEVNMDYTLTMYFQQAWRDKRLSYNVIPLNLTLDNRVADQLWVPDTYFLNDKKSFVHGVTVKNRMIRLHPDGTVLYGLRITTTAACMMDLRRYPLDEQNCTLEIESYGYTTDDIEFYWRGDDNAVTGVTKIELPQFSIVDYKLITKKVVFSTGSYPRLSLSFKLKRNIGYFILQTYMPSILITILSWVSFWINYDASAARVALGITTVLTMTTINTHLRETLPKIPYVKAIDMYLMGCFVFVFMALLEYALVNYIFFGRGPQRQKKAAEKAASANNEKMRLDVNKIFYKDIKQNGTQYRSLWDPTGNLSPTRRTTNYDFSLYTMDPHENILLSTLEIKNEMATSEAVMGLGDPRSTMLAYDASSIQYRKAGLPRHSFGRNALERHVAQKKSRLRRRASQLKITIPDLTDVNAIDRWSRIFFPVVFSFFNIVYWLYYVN
Chain of human GABAA receptors composed of the α1β2γ2 subunits (P18507 40-475 limits assumed): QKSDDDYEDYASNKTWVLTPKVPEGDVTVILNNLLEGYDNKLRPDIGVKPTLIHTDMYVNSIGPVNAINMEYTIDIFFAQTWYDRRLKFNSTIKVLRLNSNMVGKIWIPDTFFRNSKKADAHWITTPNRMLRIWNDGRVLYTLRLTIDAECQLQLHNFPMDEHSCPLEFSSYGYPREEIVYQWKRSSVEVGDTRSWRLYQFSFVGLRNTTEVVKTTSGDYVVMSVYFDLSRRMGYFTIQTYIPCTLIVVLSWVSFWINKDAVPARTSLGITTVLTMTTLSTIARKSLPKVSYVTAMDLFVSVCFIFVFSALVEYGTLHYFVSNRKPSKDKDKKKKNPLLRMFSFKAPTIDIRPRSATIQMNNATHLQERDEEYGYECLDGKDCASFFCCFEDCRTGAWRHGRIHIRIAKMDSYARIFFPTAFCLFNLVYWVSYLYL

As a reminder, the pIC50 is −log10 of the IC50, conventionally taken in molar units. By pEC50 is commonly meant −log10 of the EC50, conventionally taken in molar units. Turning to `COC[C@@]1(O)CC[C@H]2[C@H](CC[C@@H]3[C@@H]2CC[C@]2(C)[C@@H]([C@@H](C)Nc4ccc(C#N)cn4)CC[C@@H]32)C1` [Example 41, 6-(((R)-1-((3R,5R,8R,9R,10S,13S,14S,17S)-3-hydroxy-3-(methoxymethyl)-13-methylhexadecahydro-1H-cyclopenta[a]phenanthren-17-yl)ethyl)amino)nicotinonitrile], the pIC50 in test [1] is 6.00 to 7.00. Moreover, in test [2], the pEC50 is ≤ 6.00 and the “α1β2γ2 EMAX” value is recorded as “A (A indicates an Emax response <8)”. Besides, in test [3], the pEC50 is ≤ 6.00 and the “α4β3δ EMAX” value is “B (B indicates an Emax response 30 to <45)”.
Turning to `CCOC[C@@]1(O)CC[C@H]2[C@H](CC[C@@H]3[C@@H]2CC[C@]2(C)[C@@H]([C@@H](C)N(C)S(=O)(=O)c4cccc(C#N)n4)CC[C@@H]32)C1` [Example 72], in test [1], the pIC50 was > 7.00. Moreover, in test [2], the negative-log EC50 (pEC50) was 6.00 to 6.70 and the “α1β2γ2 EMAX” value was “C (C indicates an Emax response ≥10)”. Besides, in test [3], the pEC50 is 6.00 to 6.70 and the “α4β3δ EMAX” value is “C (C indicates an Emax response ≥45)”.
Turning to `CCOC[C@@]1(O)CC[C@H]2[C@H](CC[C@@H]3[C@@H]2CC[C@]2(C)[C@@H]([C@H](C)Cn4cc(C#N)cn4)CC[C@@H]32)C1` [Example 270, 1-((S)-2-((3R,5R,8R,9R,10S,13S,14S,17R)-3-(ethoxymethyl)-3-hydroxy-13-methylhexadecahydro-1H-cyclopenta[a]phenanthren-17-yl)propyl)-1H-pyrazole-4-carbonitrile], in test [1], the pIC50 is > 7.00. Further, in test [2], the pEC50 is 6.00 to 6.70 and the “α1β2γ2 EMAX” value is reported as “C (C indicates an Emax response ≥10)”. Further, in test [3], the pEC50 was 6.00 to 6.70 and the “α4β3δ EMAX” value is reported as “C (C indicates an Emax response ≥45)”.
Consider `CCOC[C@@]1(O)CC[C@H]2[C@H](CC[C@@H]3[C@@H]2CC[C@]2(C)[C@@H]([C@H](Cn4cc(C#N)cn4)C(F)(F)F)CC[C@@H]32)C1` [Example 357, 1-((R)-2-((3R,5R,8R,9R,10S,13S,14S,17R)-3-(ethoxymethyl)-3-hydroxy-13-methylhexadecahydro-1H-cyclopenta[a]phenanthren-17-yl)-3,3,3-trifluoropropyl)-1H-pyrazole-4-carbonitrile], for which the pIC50 in test [1] is 6.00 to 7.00. In test [2], the pEC50 was 6.00 to 6.70 and the “α1β2γ2 EMAX” value is “B (B indicates an Emax response 8 to <10)”. Moreover, in test [3], the pEC50 was 6.00 to 6.70 and the “α4β3δ EMAX” value is on record as “B (B indicates an Emax response 30 to <45)”.
Turning to `CCOC[C@@]1(O)CC[C@@]2(C)[C@H](CC[C@@H]3[C@@H]2CC[C@]2(C)[C@@H]([C@H](C)Cn4ccc(C#N)n4)CC[C@@H]32)C1` [Example 278, 1-((S)-2-((3R,5R,8R,9S,10S,13S,14S,17R)-3-(ethoxymethyl)-3-hydroxy-10,13-dimethylhexadecahydro-1H-cyclopenta[a]phenanthren-17-yl)propyl)-1H-pyrazole-3-carbonitrile], in test [1], the pIC50 is > 7.00. For the same molecule, in test [2], the pEC50 is > 6.70 and the “α1β2γ2 EMAX” value is “A (A indicates an Emax response <8)”. Also, in test [3], the pEC50 was > 6.70 and the “α4β3δ EMAX” value is on record as “A (A indicates an Emax response <30)”.
In the case of `CCOC[C@@]1(O)CC[C@H]2[C@H](CC[C@@H]3[C@@H]2CC[C@]2(C)[C@@H]([C@@H](C)NC(=O)c4ccc(F)cc4F)CC[C@@H]32)C1` [Example 132], the pIC50 in test [1] is > 7.00. Also, in test [2], the pEC50 was ≤ 6.00 and the “α1β2γ2 EMAX” value was “C (C indicates an Emax response ≥10)”. For the same molecule, in test [3], the pEC50 was ≤ 6.00 and the “α4β3δ EMAX” value is listed as “B (B indicates an Emax response 30 to <45)”.
Regarding `C[C@@H](Cn1cc(C#N)cn1)[C@H]1CC[C@H]2[C@@H]3CC[C@@H]4C[C@@](O)(C5CC5)CC[C@@H]4[C@H]3CC[C@]12C` [Example 341, 1-((R)-2-((3R,5R,8R,9R,10S,13S,14S,17R)-3-cyclopropyl-3-hydroxy-13-methylhexadecahydro-1H-cyclopenta[a]phenanthren-17-yl)propyl)-1H-pyrazole-4-carbonitrile], in test [1], the pIC50 was > 7.00. In test [2], the negative-log EC50 (pEC50) is > 6.70 and the “α1β2γ2 EMAX” value was “A (A indicates an Emax response <8)”. Further, in test [3], the pEC50 was > 6.70 and the “α4β3δ EMAX” value is on record as “A (A indicates an Emax response <30)”.
Regarding `CCOC[C@@]1(O)CC[C@H]2[C@H](CC[C@@H]3[C@@H]2CC[C@]2(C)[C@@H]([C@H](Cn4nnc(C)n4)C(F)(F)F)CC[C@@H]32)C1` [Example 358, (3R,5R,8R,9R,10S,13S,14S,17R)-3-(ethoxymethyl)-13-methyl-17-((R)-1,1,1-trifluoro-3-(5-methyl-2H-tetrazol-2-yl)propan-2-yl)hexadecahydro-1H-cyclopenta[a]phenanthren-3-ol], the pIC50 in test [1] was 6.00 to 7.00. In addition, in test [2], the pEC50 was ≤ 6.00 and the “α1β2γ2 EMAX” value is given as “A (A indicates an Emax response <8)”. Moreover, in test [3], the pEC50 is ≤ 6.00 and the “α4β3δ EMAX” value is reported as “B (B indicates an Emax response 30 to <45)”.
Regarding `C[C@@H](Cc1ccc(C(F)(F)F)nc1)[C@H]1CC[C@H]2[C@@H]3CC[C@@H]4C[C@](C)(O)CC[C@@H]4[C@H]3CC[C@]12C` [Example 443], in test [1], the pIC50 is > 7.00. Also, in test [2], the negative-log EC50 (pEC50) was > 6.70 and the “α1β2γ2 EMAX” value is “C (C indicates an Emax response ≥10)”. In test [3], the pEC50 was > 6.70 and the “α4β3δ EMAX” value was “B (B indicates an Emax response 30 to <45)”.
`CCC[C@@]1(O)CC[C@H]2[C@H](CC[C@@H]3[C@@H]2CC[C@]2(C)[C@@H]([C@@H](C)Cn4nnc(C)n4)CC[C@@H]32)C1` [Example 294, (3R,5R,8R,9R,10S,13S,14S,17R)-13-methyl-17-((R)-1-(5-methyl-2H-tetrazol-2-yl)propan-2-yl)-3-propylhexadecahydro-1H-cyclopenta[a]phenanthren-3-ol]: the pIC50 in test [1] is > 7.00. In test [2], the pEC50 is 6.00 to 6.70 and the “α1β2γ2 EMAX” value is recorded as “C (C indicates an Emax response ≥10)”. Besides, in test [3], the pEC50 is 6.00 to 6.70 and the “α4β3δ EMAX” value was “B (B indicates an Emax response 30 to <45)”.
For the molecule `Cc1cnc(C[C@H](C)[C@H]2CC[C@H]3[C@@H]4CC[C@@H]5C[C@](C)(O)CC[C@@H]5[C@H]4CC[C@]23C)cn1` [Example 439], the pIC50 in test [1] is > 7.00. Besides, in test [2], the pEC50 is > 6.70 and the “α1β2γ2 EMAX” value is given as “C (C indicates an Emax response ≥10)”. Also, in test [3], the pEC50 was > 6.70 and the “α4β3δ EMAX” value was “C (C indicates an Emax response ≥45)”.
As for `CCOC[C@@]1(O)CC[C@@]2(C)[C@H](CC[C@@H]3[C@@H]2CC[C@]2(C)[C@@H]([C@@H](C)Cn4nccc4C#N)CC[C@@H]32)C1` [Example 280, 1-((R)-2-((3R,5R,8R,9S,10S,13S,14S,17R)-3-(ethoxymethyl)-3-hydroxy-10,13-dimethylhexadecahydro-1H-cyclopenta[a]phenanthren-17-yl)propyl)-1H-pyrazole-5-carbonitrile], the pIC50 in test [1] is > 7.00. In test [2], the pEC50 is > 6.70 and the “α1β2γ2 EMAX” value is “C (C indicates an Emax response ≥10)”. Further, in test [3], the pEC50 is > 6.70 and the “α4β3δ EMAX” value was “B (B indicates an Emax response 30 to <45)”.
Turning to `CCC[C@@]1(O)CC[C@H]2[C@H](CC[C@@H]3[C@@H]2CC[C@]2(C)[C@@H]([C@H](C)Cn4nnc(C)n4)CC[C@@H]32)C1` [Example 293, (3R,5R,8R,9R,10S,13S,14S,17R)-13-methyl-17-((S)-1-(5-methyl-2H-tetrazol-2-yl)propan-2-yl)-3-propylhexadecahydro-1H-cyclopenta[a]phenanthren-3-ol], in test [1], the pIC50 is > 7.00. Besides, in test [2], the pEC50 was ≤ 6.00 and the “α1β2γ2 EMAX” value is “A (A indicates an Emax response <8)”. Moreover, in test [3], the pEC50 was 6.00 to 6.70 and the “α4β3δ EMAX” value is recorded as “A (A indicates an Emax response <30)”.
